In patent publication US11058775B2, “Insulin dimer-incretin conjugates” (Merck Sharp & Dohme Corp., priority 2016, dated 2021) one finds GCGR/GLP1R ratio data, which are given here for 1 molecule.

Each structure is given as a SMILES string.

This assay addresses T1, human GCGR (Homo sapiens, UniProt P47871).
T1 construct: expressed in transfected cells; grown under Blasticidin and Hygromycin selection
In words: cAMP activity assay, cells expressing human GCGR. The conditions noted are these: ratio of hGCGR EC50 to hGLP1R EC50, Table 7. It counts as cell-based.

T1 sequence (P47871 26-477): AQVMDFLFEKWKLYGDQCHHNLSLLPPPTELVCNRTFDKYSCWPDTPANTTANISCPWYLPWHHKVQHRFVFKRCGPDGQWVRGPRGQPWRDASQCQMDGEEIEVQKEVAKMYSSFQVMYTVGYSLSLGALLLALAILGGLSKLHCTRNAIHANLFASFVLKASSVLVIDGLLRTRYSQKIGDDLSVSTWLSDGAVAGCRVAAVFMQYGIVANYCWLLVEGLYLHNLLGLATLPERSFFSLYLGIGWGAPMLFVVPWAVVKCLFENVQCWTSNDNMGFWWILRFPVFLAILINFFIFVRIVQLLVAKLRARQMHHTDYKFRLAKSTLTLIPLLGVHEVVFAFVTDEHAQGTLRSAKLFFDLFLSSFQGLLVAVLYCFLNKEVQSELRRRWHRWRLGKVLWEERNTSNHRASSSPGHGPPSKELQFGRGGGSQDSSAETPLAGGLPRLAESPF
Description: Activity of the peptides and the conjugates at the Glucagon receptor (GCGR) and GLP-1 receptor (GLP1R) may be measured in a cAMP activity assay as follows.
Peptides are dissolved in 100% DMSO and serially diluted to generate 10 point titrations. The peptide solutions are then transferred into 384-well assay plates (150 nL/well). Assay ready frozen cells expressing human GIPR, GLP1R or human GCGR are suspended in growth media consisting of DMEM medium (GIBCO), 10% FBS (GIBCO), 1×NEAA(GIBCO), 1×P/S (GIBCO), 10 μg/mL Blasticidin (GIBCO) and 200 μg/mL Hygromycin (GIBCO). […] The cell suspensions (15 μL) are then added to the assay plates containing the peptide solutions (30,000 cells/well for human GCGR; 10,000 cells/well for human GLP1R and 15,000 cells/well for human GIPR). The cells are incubated for one hour at room temperature in the dark.
Production of cAMP may be determined using HitHunter™ cAMPXS kits (DiscoverX) following the manufacturer's protocol. The plates are incubated for overnight at room temperature in the dark. Luminescence may be measured using an EnVision Multilabel plate reader (Perkin Elmer). Native GIP, GLP-1 and Glucagon (Bachem) may be used as control peptides. EC50 values may be calculated using uses a 4 parameter logistic fit based on the Levenberg-Marquardt algorithm.

As for `CC(C)C[C@H](NC(=O)[C@H](Cc1ccc(O)cc1)NC(=O)[C@H](CCCCN)NC(=O)[C@H](CO)NC(=O)[C@H](CCCCN)NC(=O)[C@H](CC(=O)O)NC(=O)[C@H](CO)NC(=O)[C@@H](NC(=O)[C@H](Cc1ccccc1)NC(=O)[C@@H](NC(=O)CNC(=O)[C@H](CCC(N)=O)NC(=O)[C@@H](CO)NC(=O)[C@@H](N)Cc1c[nH]cn1)[C@@H](C)O)[C@@H](C)O)C(=O)N[C@@H](CC(=O)O)C(=O)N[C@@H](CCC(=O)O)C(=O)N[C@@H](CCCNC(=N)N)C(=O)N[C@@H](C)C(=O)N[C@@H](C)C(=O)N[C@@H](CCC(N)=O)C(=O)N[C@@H](CC(=O)O)C(=O)N[C@@H](Cc1ccccc1)C(=O)N[C@H](C(=O)N[C@@H](CCCCN=[N+]=[N-])C(=O)N[C@@H](Cc1c[nH]c2ccccc12)C(=O)N[C@@H](CC(C)C)C(=O)N[C@@H](CC(C)C)C(=O)N[C@@H](CC(=O)O)C(=O)N[C@H](C(N)=O)[C@@H](C)O)C(C)C` [PEP88], the GCGR/GLP1R ratio worked out at 0.97.
